Source: publication PMC9182007, “Statistical Methods in the Study of Protein Binding and Its Relationship to Drug Bioavailability in Breast Milk” (Molecules, 2022)
Where two headings read alike, the source gives them in different places.

Key:
[1] = Milk-to-plasma (M/P) drug concentration ratio obtained in vivo, from literature; parameters: species or system human; details: Table S1, scale of drug penetration into milk 1-4
[2] = biological target: T1, bovine serum albumin (BSA) (Bos taurus, UniProt P02769); experiment: NP TLC on plates impregnated with bovine serum albumin; assay type: binding; details: Table S3, NP plate impregnated with 2 mg/mL BSA; pH 7.4 mobile phase
T1 construct: purchased Sigma Aldrich
Source text: (§1) Chromatographic descriptors were obtained in experiments, thin layer chromatography in normal (NP TLC) and reversed mode (RP TLC). The stationary phase was modified with bovine serum albumin (BSA). TLC was the source of retention factor (Rf) values, denoted in statistical models as NP and RP.
(§2) For TLC chromatography, glass plates 20 × 20 cm from Merck, covered with silica gel with the addition of a fluorescent indicator, were used. Normal phase (NP) plates were used with standard Merck TLC Silica gel 60 F254 plates, while in reverse phase (RP) silanized plates RP-2: Merck TLC Silica gel 60 RP-2 F254 were used.
(§3) The stationary phase of the plates, both NP and RP, was modified with an aqueous solution of bovine serum albumin purchased from Sigma Aldrich (bovine serum albumin, lyophilized powder).
(§4) The impregnation of the plates was carried out with a 2 mg/mL solution applied to the surface using a Desaga SG 1 hand sprayer; the plates were then air dried. […] Normal and reversed phase thin layer chromatography (NP TLC and RP TLC respectively) was performed using silica-gel-coated glass plates. Half of them were covered with 2 mg/mL bovine serum albumin solution and half remained pure.
(§5) The mobility of the compounds was also determined on the plates with no protein as a modifier. […] The acetate buffer (20 mM) was prepared by dissolving 1.54 g of ammonium acetate in 1 L of distilled water. The pH was then adjusted with a concentrated ammonia solution using a pH meter. The plates were developed in standard, vertical chromatographic chambers, each time using 100 mL of the mobile phase, after the chamber was previously saturated with solvent vapors for approximately 1 h.
(§6) The unfolded-protein-impregnated plates and the control plates were scanned with a Desaga CD 60 densitometer. The values of the delay factor (Rf) were collected, i.e., the ratio of the distance traveled by the substance to be analyzed to the distance traveled through the front of the mobile phase. […] The experiment was repeated (for both BSA-coated and control plates) and the Rf values pooled are the mean of both series of experiments.

[3] = biological target: T1, bovine serum albumin (BSA); experiment: RP TLC on plates impregnated with bovine serum albumin; assay type: binding; details: Table S4, RP plate impregnated with 2 mg/mL BSA; pH 7.4 mobile phase
Source text: as §1, §2, §3, §4, §5, §6

[4] = NP TLC on non-impregnated control plates; assay type: physicochemical; details: Table S3, non-impregnated NP plate; acetonitrile/acetate buffer pH 7.4/methanol 60:20:20
Procedure: as §2
Normal and reversed phase thin layer chromatography (NP TLC and RP TLC respectively) was performed using silica-gel-coated glass plates. Half of them were covered with 2 mg/mL bovine serum albumin solution and half remained pure.
as §5, §6

[5] = RP TLC on non-impregnated control plates; assay type: physicochemical; details: Table S4, non-impregnated RP plate; acetonitrile/acetate buffer pH 7.4/methanol 60:20:20
[6] = HPLC on immobilized artificial membrane column (HPLCIAM); assay type: physicochemical; details: for log k IAM: Table S5, IAM column, pH 7.4; for k IAM: Table S5, retention factor, IAM column, phosphate buffer pH 7.4/acetonitrile 80:20
Procedure: High performance liquid chromatography was performed using immobilized human serum albumin column (HPLCHSA) and immobilized artificial membrane (HPLCIAM). HPLC was the source of the log k values (logarithm of retention factor), log kHSA and log kIAM.
The second experiment was performed using an immobilized artificial membrane (IAM) column. The assay was also performed on a Perkin Elmer Series 200 instrument connected to a UV-VIS spectrometer as the detector. The analytical wavelength was the same for all compounds, at 210 nm. […] The mobile phase was a mixture of 10 mM phosphate buffer pH 7.4 and acetonitrile in the ratio 80:20 (v/v). The phosphate buffer was obtained by dissolving the finished tablet in the appropriate amount of distilled water (1 tablet per 200 mL). In this case, it was not necessary to adjust the pH of the buffer using a pH meter.
The phase flow through the system was set to 0.5 mL/min as recommended by the column manufacturer. The solutions were delivered to the column using an autosampler syringe, the injection size was 10 µL.
The experiment was then repeated and the collected retention rates were the mean values of both series.

[7] = biological target: T2, human serum albumin (HSA) (Homo sapiens, UniProt P02768)
[8] = Table S1, milk/plasma drug concentration ratio, in vivo; cited from earlier work
[9] = tested on: plasma protein; details: Table S1, plasma protein binding given as fraction; ref DrugBank [7]; cited from earlier work
[10] = Table S1, coded 1/0; ref DrugBank [7]; cited from earlier work
[11] = biological target: T2, human serum albumin (HSA); experiment: in vitro; details: immobilized hsa column, pH 7.4
[12] = Table S5, retention factor, HSA column, pH 7.4, 25 degrees Celsius
[13] = human, immobilized hsa column, pH 7.4

T2 sequence (P02768 25-609): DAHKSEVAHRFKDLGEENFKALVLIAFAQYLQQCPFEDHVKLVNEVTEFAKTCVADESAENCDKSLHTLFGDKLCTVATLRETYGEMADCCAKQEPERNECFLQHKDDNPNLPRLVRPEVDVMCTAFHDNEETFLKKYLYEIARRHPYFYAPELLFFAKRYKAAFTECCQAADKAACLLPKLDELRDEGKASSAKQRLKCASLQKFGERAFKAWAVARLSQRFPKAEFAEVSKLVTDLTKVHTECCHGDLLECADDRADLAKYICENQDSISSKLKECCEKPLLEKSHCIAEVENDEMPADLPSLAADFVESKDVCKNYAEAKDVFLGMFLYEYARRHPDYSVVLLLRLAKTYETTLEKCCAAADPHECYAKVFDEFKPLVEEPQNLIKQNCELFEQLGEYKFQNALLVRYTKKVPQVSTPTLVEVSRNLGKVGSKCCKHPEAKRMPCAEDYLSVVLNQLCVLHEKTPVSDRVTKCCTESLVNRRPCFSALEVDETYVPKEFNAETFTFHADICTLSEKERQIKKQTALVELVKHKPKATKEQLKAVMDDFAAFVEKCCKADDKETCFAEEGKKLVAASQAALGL
T1 sequence (P02769 25-607): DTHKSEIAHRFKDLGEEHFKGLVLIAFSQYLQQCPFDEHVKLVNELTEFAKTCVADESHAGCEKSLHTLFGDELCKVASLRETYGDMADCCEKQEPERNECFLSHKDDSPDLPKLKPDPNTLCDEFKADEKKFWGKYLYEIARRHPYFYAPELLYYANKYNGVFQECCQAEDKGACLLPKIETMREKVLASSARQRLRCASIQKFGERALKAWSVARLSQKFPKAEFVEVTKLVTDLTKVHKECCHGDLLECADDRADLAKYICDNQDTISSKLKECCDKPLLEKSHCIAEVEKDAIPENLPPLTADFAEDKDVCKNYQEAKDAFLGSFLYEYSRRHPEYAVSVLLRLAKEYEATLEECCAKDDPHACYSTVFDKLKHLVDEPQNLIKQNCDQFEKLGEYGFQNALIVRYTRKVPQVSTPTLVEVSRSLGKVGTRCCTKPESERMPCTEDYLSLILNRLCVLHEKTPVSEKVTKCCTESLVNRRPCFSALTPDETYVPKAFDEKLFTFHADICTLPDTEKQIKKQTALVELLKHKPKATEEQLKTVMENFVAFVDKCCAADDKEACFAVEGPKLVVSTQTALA

Row | SMILES | M/P code [1] | NP (Rf, BSA-impregnated NP plate) [2] | RP (Rf, BSA-impregnated RP plate) [3] | CNP (Rf, control NP plate) [4] | CRP (Rf, control RP plate) [5] | log k IAM [6] | k IAM [6] | log k HSA ([7]; Table S5, HSA, pH 7.4) | k HSA [7, 12] | M/P [8] | PB [9] | CNS+/- [10] | log k HSA [7, 13] | k HSA ([7]; pH 7.4) | chromatographic logD [11]
1 | Cc1ccc(-c2cc(C(F)(F)F)nn2-c2ccc(S(N)(=O)=O)cc2)cc1 [celecoxib] | 2 (2 corresponds to the range of 0.40–0.80—at the safety limit) | 0.99 | 0.75 | 0.98 | 0.75 | 1.70 | 50.01 | 1.13 | 13.42 | 0.41 | 0.97 | 1 |  |  | 
2 | COc1cc(N)c(Cl)cc1C(=O)NC1CCN(CCCOc2ccc(F)cc2)CC1OC (stereo not shown) [cisapride] | 1 (Code 1 corresponds to drugs with an M/P value <0.40—completely safe) | 0.63 | 0.62 | 0.64 | 0.65 | 1.76 | 57.99 |  | 4.88 | 0.045 | 0.975 | 1 | 0.69 |  | 
3 | O=C(O)C1N=C(c2ccccc2)c2cc(Cl)ccc2NC1=O (stereo not shown) [clorazepate] | 1 (Code 1 corresponds to drugs with an M/P value <0.40—completely safe) | 0.94 | 0.81 | 0.94 | 0.81 | 0.69 | 4.88 |  |  | 0.2 | 0.975 |  |  | 3.99 | 0.6
4 | Fc1ccc([C@@H]2CCNC[C@H]2COc2ccc3c(c2)OCO3)cc1 [paroxetine] | 2 (2 corresponds to the range of 0.40–0.80—at the safety limit) | 0.56 | 0.67 | 0.55 | 0.60 | 2.06 | 115.77 | 0.78 | 5.96 | 0.675 | 0.94 | 1 |  |  | 
5 | CN1C(C(=O)Nc2ccccn2)=C(O)c2ccccc2S1(=O)=O [piroxicam] | 1 (Code 1 corresponds to drugs with an M/P value <0.40—completely safe) | 0.98 | 0.60 | 0.98 | 0.58 | -0.79 | 0.16 |  | 32.92 | 0.02 |  | 0 |  |  | 1.52
6 | CCOC(=O)[C@H](CCc1ccccc1)N[C@@H](C)C(=O)N1Cc2ccccc2C[C@H]1C(=O)O [quinapril] | 1 (Code 1 corresponds to drugs with an M/P value <0.40—completely safe) | 0.44 | 0.56 | 0.44 | 0.57 | 0.09 | 1.22 |  | 3.1 | 0.12 | 0.97 | 0 | 0.49 |  | 
7 | CN1CCN(C(=O)OC2c3nccnc3C(=O)N2c2ccc(Cl)cn2)CC1 (stereo not shown) [zopiclone] | 2 (2 corresponds to the range of 0.40–0.80—at the safety limit) | 0.96 | 0.83 | 0.96 | 0.84 | -0.04 | 0.91 |  |  | 0.51 | 0.45 |  |  | 0.76 | -0.12
8 | OCCN1CCN(CC/C=C2/c3ccccc3Sc3ccc(Cl)cc32)CC1 [zuclopenthixol] | 1 (Code 1 corresponds to drugs with an M/P value <0.40—completely safe) | 0.47 |  | 0.47 |  | 1.69 | 48.73 |  | 16.18 | 0.37 | 0.985 | 1 |  |  | 1.21
